{"source": "patent US20050084461A1", "about": "“Tooth enamel rejuvenating toothpaste” (priority 2003, published 2005)", "origin": "cited, not measured here", "conditions": "pH of about 7.0, temperature of about 25° C.", "data": [{"smiles": "O.O.O=P([O-])([O-])O.[Ca+2]", "note": "[dicalcium phosphate dihydrate]", "values": [{"measurement": "calcium cations released in aqueous solution", "result": "about 40 ppm"}]}]}
